Results on 16 molecules are retold here after patent US12338220B2, “Antiviral pyrazolopiridinone compounds” (Novartis AG, priority 2019, dated 2025).

For one assay, the target named is CMV-polymerase (Human cytomegalovirus (strain AD169) (HHV-5) (Human herpesvirus 5), UniProt P08546). In words: biochemical.
For the next assay, the system named is CMV. In words: microbe, parasite or virus in culture. The settings on record: Human betaherpesvirus 5, 72 h, read-out: CMV-Luc Cellular EC50, NN-NHDF cells, MOI 1, 72 hrs. Type of assay: cell-based.
[1] abbreviates: CMV-polymerase Biochemical IC50.
Where [2] appears, read: read-out: CMV-polymerase Biochemical IC50.

pEC50, pIC50: −log10 of the molar value. Like-named read-outs stand apart in the source and are kept apart here.

Usually pIC50 stands for −log10 of the IC50, conventionally taken in molar units. One may read the pEC50 as the EC50 on a negative log10 scale, so that one unit is a factor of ten. As for `Cn1nc(-c2noc(Cc3ccc(C#N)cc3)n2)c2c1C(=O)N(CC1(S(=O)(=O)C3CC3)CC1)CC2` [Example 28, 4-((3-(6-((1-(Cyclopropylsulfonyl)cyclopropyl)methyl)-1-methyl-7-oxo-4,5,6,7-tetrahydro-1H-pyrazolo[3,4-c]pyridin-3-yl)-1,2,4-oxadiazol-5-yl)methyl)benzonitrile], the pIC50 at CMV-polymerase (setting [1]) was 9.00. For the same molecule, in the assay with CMV, the pEC50 was 7.62.
As for `Cn1nc(C(=O)NCc2ccc(C#N)cc2)c2c1C(=O)N(CC1(S(=O)(=O)NC3CC3)CC1)CC2` [Example 129, N-(4-cyanobenzyl)-6-((1-(N-cyclopropylsulfamoyl)cyclopropyl)methyl)-1-methyl-7-oxo-4,5,6,7-tetrahydro-1H-pyrazolo[3,4-c]pyridine-3-carboxamide], on CMV-polymerase (setting [2]), the pIC50 was 7.80. For the same molecule, the pEC50 with CMV is 6.61.
On CMV-polymerase (setting [1]), `CC1(C)C(=O)NCCOCCn2nc(C(=O)NCc3ccc(C#N)cc3)c3c2C(=O)N(CC3)CC2(CC2)S1(=O)=O` [Example 241, Lactam macrocycle N-(4-cyanobenzyl)carboxamide] gave a pIC50 of 7.89. The pEC50 with CMV was 6.33.
In turn, `CC(C)(O)Cn1nc(C(=O)NCc2ccc(Cl)cc2)c2c1C(=O)N(CC1(S(=O)(=O)C3CC3)CC1)CC2` [Example 229, N-(4-Chlorobenzyl)-6-((1-(cyclopropylsulfonyl)cyclopropyl)methyl)-1-(2-hydroxy-2-methylpropyl)-7-oxo-4,5,6,7-tetrahydro-1H-pyrazolo[3,4-c]pyridine-3-carboxamide] showed a pIC50 at CMV-polymerase (setting [1]) of 9.00. Moreover, the pEC50 in the assay on CMV was 7.70.
Take `Cn1nc(C(=O)NOc2ccc(Cl)cc2)c2c1C(=O)N(CC1(S(=O)(=O)C3(C)CC3)CC1)CC2` [Example 37, N-(4-Chlorophenoxy)-1-methyl-6-((1-((1-methylcyclopropyl)sulfonyl)cyclopropyl)methyl)-7-oxo-4,5,6,7-tetrahydro-1H-pyrazolo[3,4-c]pyridine-3-carboxamide]: the pIC50 on CMV-polymerase (setting [2]) was 8.15. For the same molecule, in the assay with CMV, the pEC50 is 6.98.
With `Cn1nc(C(=O)NCc2ccc(C#N)cc2)c2c1C(=O)N(CC1(S(=O)(=O)C(C)(C)CN3CC(O)C3)CC1)CC2` [Example 65, N-(4-Cyanobenzyl)-6-((1-((1-(3-hydroxyazetidin-1-yl)-2-methylpropan-2-yl)sulfonyl)cyclopropyl)methyl)-1-methyl-7-oxo-4,5,6,7-tetrahydro-1H-pyrazolo[3,4-c]pyridine-3-carboxamide], the pIC50 on CMV-polymerase (setting [2]) is 8.70. Also, in the assay with CMV, the pEC50 was 7.30.
On CMV-polymerase (setting [1]), `CC1(S(=O)(=O)C2(CN3CCc4c(C(=O)NCc5ccc(Cl)cc5)nn(CCOCCO)c4C3=O)CC2)CC1` [Example 222, N-(4-Chlorobenzyl)-1-(2-(2-hydroxyethoxy)ethyl)-6-((1-((1-methylcyclopropyl)sulfonyl)cyclopropyl)methyl)-7-oxo-4,5,6,7-tetrahydro-1H-pyrazolo[3,4-c]pyridine-3-carboxamide] gave a pIC50 of 8.52. For the same molecule, the pEC50 in the assay with CMV was 7.48.
As to `Cn1nc(C(=O)N[C@@H](CO)c2ccc(Cl)cc2)c2c1C(=O)N(CC1(S(=O)(=O)C3CC3)CC1)CC2` [Example 18, (R)-N-(1-(4-Chlorophenyl)-2-hydroxyethyl)-6-((1-(cyclopropylsulfonyl)cyclopropyl)methyl)-1-methyl-7-oxo-4,5,6,7-tetrahydro-1H-pyrazolo[3,4-c]pyridine-3-carboxamide], on CMV-polymerase (setting [2]), the pIC50 is 7.66. Moreover, in the assay with CMV, the pEC50 is 6.52.
For the molecule `COc1ccc(C)nc1NS(=O)(=O)C1(CN2CCc3c(C(=O)NCc4ccc(C#N)cc4)nn(C)c3C2=O)CC1` [Example 160, N-(4-Cyanobenzyl)-6-((1-(N-(3-methoxy-6-methylpyridin-2-yl)sulfamoyl)cyclopropyl)methyl)-1-methyl-7-oxo-4,5,6,7-tetrahydro-1H-pyrazolo[3,4-c]pyridine-3-carboxamide], the pIC50 on CMV-polymerase (setting [2]) was 8.22. Further, in the assay on CMV, the pEC50 is 6.93.
With `CN(C)CC(=O)NCC(C)(C)S(=O)(=O)C1(CN2CCc3c(C(=O)NCc4ccc(C#N)cc4)nn(C)c3C2=O)CC1` [Example 78, N-(4-Cyanobenzyl)-6-((1-((1-(2-(dimethylamino)acetamido)-2-methylpropan-2-yl)sulfonyl)cyclopropyl)methyl)-1-methyl-7-oxo-4,5,6,7-tetrahydro-1H-pyrazolo[3,4-c]pyridine-3-carboxamide], the negative-log IC50 (pIC50) on CMV-polymerase (setting [2]) was 7.59. Moreover, the pEC50 in the assay on CMV is 6.95.
For the molecule `Cn1nc(C(=O)NCc2ccc(C#N)cc2)c2c1C(=O)N(CC1(S(=O)(=O)Nc3cc(C4CC4)on3)CC1)CC2` [Example 167, N-(4-Cyanobenzyl)-6-((1-(N-(5-cyclopropylisoxazol-3-yl)sulfamoyl)cyclopropyl)methyl)-1-methyl-7-oxo-4,5,6,7-tetrahydro-1H-pyrazolo[3,4-c]pyridine-3-carboxamide], the pIC50 on CMV-polymerase (setting [2]) was 8.40. In addition, the pEC50 with CMV was 6.29.
Taken in the same sequence, the figures for `COc1cccnc1NS(=O)(=O)C1(CN2CCc3c(C(=O)NCc4ccc(C#N)cc4)nn(C)c3C2=O)CC1` [Example 159, N-(4-Cyanobenzyl)-6-((1-(N-(3-methoxypyridin-2-yl)sulfamoyl)cyclopropyl)methyl)-1-methyl-7-oxo-4,5,6,7-tetrahydro-1H-pyrazolo[3,4-c]pyridine-3-carboxamide] were 7.89 and 6.53.
Taken in the same sequence, the figures for `CN(Cc1ccc(C#N)cc1)C(=O)c1nn(C)c2c1CCN(CC1(S(=O)(=O)C3CC3)CC1)C2=O` [Example 6, N-(4-Cyanobenzyl)-6-((1-(cyclopropylsulfonyl)cyclopropyl)methyl)-N,1-dimethyl-7-oxo-4,5,6,7-tetrahydro-1H-pyrazolo[3,4-c]pyridine-3-carboxamide] were 7.52 and 6.11.
On to `Cn1nc(C(=O)NCc2ccc(C#N)cc2)c2c1C(=O)N(CC1(S(=O)(=O)[C@H]3C[C@@H](O)C3)CC1)CC2` [Example 119, N-(4-Cyanobenzyl)-6-((1-(((1s,3s)-3-hydroxycyclobutyl)sulfonyl)cyclopropyl)methyl)-1-methyl-7-oxo-4,5,6,7-tetrahydro-1H-pyrazolo[3,4-c]pyridine-3-carboxamide], for which the pIC50 at CMV-polymerase (setting [1]) was 8.40. Moreover, the pEC50 in the assay with CMV was 6.81.
For the molecule `Cn1nc(C(=O)NCc2ccc(C#N)cc2)c2c1C(=O)N(CC1(S(=O)(=O)C3(C(O)CN)CC3)CC1)CC2` (centres unmarked) [Example 208, 6-((1-((1-(2-Amino-1-hydroxyethyl)cyclopropyl)sulfonyl)cyclopropyl)methyl)-N-(4-cyanobenzyl)-1-methyl-7-oxo-4,5,6,7-tetrahydro-1H-pyrazolo[3,4-c]pyridine-3-carboxamide], the pIC50 at CMV-polymerase (setting [2]) was 9.00. The pEC50 in the assay on CMV is 7.29.
As to `Cn1nc(C(=O)NCc2ccc(C#N)cc2)c2c1C(=O)N(CC1(S(=O)(=O)C(C)(C)COC(F)(F)CO)CC1)CC2` [Example 84, N-(4-cyanobenzyl)-6-((1-((1-(1,1-difluoro-2-hydroxyethoxy)-2-methylpropan-2-yl)sulfonyl)cyclopropyl)methyl)-1-methyl-7-oxo-4,5,6,7-tetrahydro-1H-pyrazolo[3,4-c]pyridine-3-carboxamide], at CMV-polymerase (setting [1]), the negative logarithm of the IC50 (pIC50) was 8.40. Besides, the pEC50 with CMV was 7.29.
